pIC50: −log10 of the molar value.
Tests used:
A549 cells [1] = assay: Transwell migration and Matrigel invasion assays; format: cell-based, human; conditions: dose-dependent, 12 h treatment
Protocol: The Transwell insert in a 24-well plate (8 μm, Corning, NY, USA) was taken out, and a 600-μl medium containing 10% FBS was added to the bottom chamber. The A549 cells were resuspended with 10% FBS culture medium, and the diluted cell suspension (3 × 10^5/300 μl) was cultured in the top chamber and then incubated with or without Matrigel (BD BioCoat). After 12 h, the medium in the top chamber was changed to RPMI-1640 without FBS, and BD or BH with different concentrations was added ([31]). After an additional 12 h, the cells that migrated or invaded the bottom side of the polycarbonate film were fixed with methanol for 30 min and then stained for 15 min with 0.1% crystal violet (Solarbio), after which their number was assessed under a microscope (×4, Nikon).

16HBE cells = assay: Toxicity to normal human cell line 16HBE (Figure S1); format: cell-based
Protocol: (§1) Figure S1. The toxicity of Bruceine H (BH) and Bruceine D (BD) to 16HBE (A) and LO2 (B) cells was evaluated.

LO2 cells = assay: Toxicity to normal human cell line LO2 (Figure S1); format: cell-based
Protocol: as §1

PC-9 cells = assay: cells; format: cell-based, human; conditions: PC-9, 48 h; read-out: IC50
Protocol: (§2) The human NSCLC cell lines (A549, PC-9, and PC-9/GR) and other cell lines (16HBE and LO2) were purchased from the American Type Culture Collection (ATCC, Manassas, VA, USA). […] All cell lines were cultivated at 37°C under 5% CO2.
(§3) The Cell Counting Kit-8 assays (Beyotime, Shanghai, China) were performed to assess cell viability. […] Microplate readers (Infinite F500, Tecan, Mannedorf, Switzerland) were used to measure the absorbance (A) at 450 nm. All samples were assessed in triplicate.

A549 cells [2] = assay: cells; format: cell-based, human; conditions: A549, 48 h; read-out: IC50 (48 h)
Protocol: as §2, §3

[3] = Toxicity study in nude mice: organ index, blood routine, serum biochemistry; format: in vivo
Protocol: At the end of the experiment, blood samples were taken and analyzed by blood routine. […] The lungs and spleen were weighed and recorded. H&E staining of the heart, liver, spleen, lungs, and kidneys was performed to evaluate the cytotoxic effects of BH.

PC-9/GR cells = assay: Apoptosis by flow cytometry (Annexin V-FITC/PI), PC-9/GR; format: cell-based, human; conditions: low-dose BH (4, 8 μM), gefitinib 25 μM, alone or combined
Protocol: After being digested with trypsin without EDTA, the cells were washed gently with culture medium and twice with cold PBS. The pellet was resuspended in 400 μl of 1× binding buffer, the resuspended cells were transferred to flow tubes, then Annexin V-FITC (5 μl) and propidium iodide (10 μl) were added, and the mixture was incubated for 15 min at room temperature in the dark. The percentage of apoptotic cells was determined by flow cytometry (Backman, CA, USA) and FlowJo V10 software.

PC-9/GR xenografts = PC-9/GR xenografts in BALB/c nude mice; format: in vivo; conditions: BH 2.5 mg/kg, gefitinib 25 mg/kg, alone or co-administered, intragastric
[4] = nude mice serum, mean ± SD (Table S4)
[5] = nude mice, routine blood (Table S3)

CC1=CC(=O)[C@@H](O)[C@]2(C)[C@H]3[C@@H](O)[C@H](O)[C@@]4(C)OC[C@@]35[C@@H](C[C@@H]12)OC(=O)[C@H](O)[C@]54O [BD, bruceine D, reference compound]
Transwell migration and invasion of A549 (A549 cells [1]): significant anti-invasive and antimigratory actions
toxicity to 16HBE cells (16HBE cells): higher sensitivity
toxicity to LO2 cells (LO2 cells): higher sensitivity
pIC50 (PC-9 cells): 4.66
pIC50 (A549 cells [2]): 4.57

COc1cc2ncnc(Nc3ccc(F)c(Cl)c3)c2cc1OCCCN1CCOCC1 [Gef, Gefitinib, reference compound]
HDL-C [3, 4]: 0.74 ± 0.28 mmol/L
LDL-C [3, 4]: 0.89 ± 0.45 mmol/L
TC [3, 4]: 3.49 ± 0.56 mmol/L
TG [3, 4]: 0.74 ± 0.16 mmol/L
GR [3, 5]: 4.593±2.519 ×10^9/L
GR (%) [3, 5]: 83.467±4.674%
HCT [3, 5]: 50.933±6.123%
HGB [3, 5]: 148.667 ± 17.616 g/L
LY [3, 5]: 1.017±0.533 ×10^9/L
LY (%) [3, 5]: 14.2±2.685%
MCH [3, 5]: 15.367 ± 0.306 pg
MCHC [3, 5]: 292 ± 2.646 g/L
MO [3, 5]: 0.213±0.274 ×10^9/L
MO (%) [3, 5]: 5.067±1.582%
MPV [3, 5]: 6.933 ± 0.351 fL
PCT [3, 5]: 0.653±0.110 mL/L
PLT [3, 5]: 934.333±117.1 ×10^9/L
RBC [3, 5]: 9.687±1.162 ×10^12/L
WBC [3, 5]: 6.483±1.439 ×10^8/L
apoptosis of PC-9/GR cells (PC-9/GR cells): little effects
tumor growth of PC-9/GR xenografts (PC-9/GR xenografts): slight inhibitory effect

Reference: article PMC9024338, “Bruceine H Mediates EGFR-TKI Drug Persistence in NSCLC by Notch3-Dependent β-Catenin Activating FOXO3a Signaling” (Frontiers in Oncology, 2022)
